Measured values taken from PMC9500858 (International Journal of Molecular Sciences, 2022).
pEC50: −log10 of the molar value. Where two headings read alike, the source gives them in different places.

How the values were obtained:
[1] = Acid hydrolysis (1 M HCl) forced degradation, LC-MS; format: physicochemical; conditions: for Recovery / Concentration Found (Mean ± SD): acidic degradation, 50 μg/mL in 1 M HCl, n = 3; for Concentration Found (Mean ± SD): neutralised with 1 M NaOH; for half-life in 1M HCl: calculated half-life, acidic conditions, 50 μg/mL, temperature not given for the half-life
Experimental: (§1) The separation was carried out using Kinetex XB-C18 column (150 mm × 2.1 mm × 1.7 μm; Phenomenex, Torrance, CA, USA). The mobile phase consisted of A: 0.1% formic acid in deionized water and B: 0.1% formic acid in acetonitrile (MeCN). The two-step gradient was used from 5% B to 50% B in 13 min and from 50% B to 65% B up to 20 min. The column temperature was maintained at 25 °C with a flow rate equal to 0.3 mL/min. The eluate was introduced directly to the mass spectrometer. The ion trap setting was as follows: capillary voltage 4500 V, endplate offset 500 V, nebulizer pressure 40 psi, drying gas temperature 145 °C and gas flow rate 9 L/min. The instrument used a smart parameter setting (SPS) fixed at 1000 amu. The scan range was from m/z = 70 to m/z = 2200. Compounds were analyzed in […] ion mode.
(§2) Before LC analysis, the ionization of each quantified compound in the positive ion mode was optimized by the direct injection of standard (50 µg/mL in 0.1% HCOOH in H2O; 0.3 mL/min) into the ESI source of the mass spectrometer. The intensity of the most abundant ion for each compound was monitored in order to choose optimal conditions. The quantification of investigated compounds was performed using the dominating ion (for both PK20 and [Ile^9] PK20 the ion at m/z =1357.40 ± 0.3, retention time ca. 11.2 min).
(§3) The calibration curves were plotted as the amount of injected compound (ng) vs. detector response (peak area) using extracted ion chromatograms (EIC) for the characteristic ion for each compound. The linear range for each quantified compound was between 5 and 200 ng per injection. Five amount levels were used for the plotting of curves. Samples at each level were analyzed in triplicate.
(§4) The stability of PK20 and [Ile^9]PK20 was tested under acidic, basic, oxidative, heat, freeze and ultraviolet light conditions. All experiments were conducted in triplicate (n = 3). The comparison of peak areas in degradative and non-degradative conditions for both compounds can be observed in Figure 3 and Figure 4.
(§5) Drug solution (50 μg/mL) was prepared in HCl (1 M) or NaOH (1 M). Aliquots were kept at a temperature of 80 °C (LBK type water bath, SWL Bytom, Poland) for 12 h and 37°C (medical water bath, LW102, Auritronic, Krakow, Poland) for 24 h. At a specific time-point, acidic and basic solutions of both PK20 and [Ile^9]PK20 were neutralized with an equal volume of 1 M NaOH or 1 M HCl, respectively, and diluted with an equal volume of 0.2% formic acid in acetonitrile and analyzed using LC-MS.

[2] = Base hydrolysis (1 M NaOH) forced degradation, LC-MS; format: physicochemical; conditions: for Recovery / Concentration Found (Mean ± SD): basic degradation, 50 μg/mL in 1 M NaOH, n = 3; for Concentration Found (Mean ± SD): neutralised with 1 M HCl; for half-life (t1/2) in 1M NaOH: calculated half-life, alkaline conditions, 50 μg/mL, temperature not given for the half-life
Experimental: as §1, §2, §3, §4, §5

[3] = Oxidative degradation (30% H2O2), LC-MS; format: physicochemical; conditions: n = 3
Experimental: as §1, §2, §3, §4
PK20 and [Ile^9]PK20 solution (50 μg/mL) was prepared in 30% (v/v) hydrogen peroxide (H2O2). Aliquots were incubated at 37 °C for 24 h and 80 °C for 12 h. After the incubation, each drug solution was diluted with an equal volume of 0.2% formic acid in acetonitrile and analyzed with LC-MS.

[4] = Thermal degradation and freeze-thaw in Mili-Q water, LC-MS; format: physicochemical; conditions: 50 μg/mL in Mili-Q water; for Concentration Found (Mean ± SD) / Recovery: n = 3
Experimental: as §1, §2, §3, §4
Solutions (50 μg/mL) of both hybrid peptides were prepared in Mili-Q water, and aliquots were kept at room temperature 22 °C, 37 °C and −80 °C for 24 h and at 80 °C for 12 h. One aliquot was also subjected to two freeze–thaw cycles with the sample first frozen at −80°C for 24 h, defrosted under running tap water at room temperature for 2 h and second frozen at −20°C for 24 h and defrosted under running tap water at room temperature for 2 h. Then, the solutions of PK20 and [Ile^9]PK20 were diluted with an equal volume of 0.2% formic acid in acetonitrile and analyzed with LC-MS.

[5] = Photolytic (UV) degradation in Mili-Q water, LC-MS; format: physicochemical; conditions: 365 nm UV light, 7 h, 50 μg/mL in Mili-Q water, clear plastic vials, n = 3
Experimental: as §1, §2, §3, §4
PK20 and [Ile^9]PK20 solution (50 μg/mL) was prepared in Mili-Q water, and aliquots were kept in clear plastic vials exposed to UV light (366 nm, Camag, UV Lamp 4, Camag, Switzerland) for 7 h. After the incubation, the drug solution was diluted with an equal volume of 0.2% formic acid in acetonitrile and analyzed with LC-MS.

[6] = 0.005 nmol/rat at 120 min and 0.02 nmol/rat at 30, 60 and 120 min; cited from earlier work
Text: (§6) Since hybrid compounds have gained attention due to their potent multifunctional behavior with a more favorable profile in terms of possible side effects, much work devoted to such compounds can be found. PK20 and [Ile^9]PK20, which are hybrid structures encompassing both opioid and neurotensin pharmacophores, although modified, were designed and synthesized to reduce pain.

[7] = biological target: mu opioid receptor; conditions: intrinsic activity of the receptor; read-out: EC50 (potency) at mu opioid receptor; cited from earlier work
Text: as §6

[8] = test system: mu opioid receptor; conditions: replacement of Tle with Ile; cited from earlier work
Text: Tle and Ile are structural isomers belonging to the same class of leucines with the same atomic composition (C6H13NO2) but they have different chemical structures, including different bond coordination and stereochemistry (Figure 1). Thus, their presence in the peptide structure led to diverse results. In fact, incorporation of Ile into the 9th position of the peptide chain caused a decrease in the analgesic activity in vivo when compared with PK20, having a tert-leucine (Tle9) in the corresponding position. Nonetheless, [Ile^9]PK20 produced the maximal pain-relieving effect, although wi ...

[9] = test system: CA1 region of the hippocampus; conditions: combined administration with NMDA, cited from earlier work
Text: as §6

[10] = 37 °C, 24 h, LC-MS (EIC m/z 1357.40)
[11] = 50 μg/mL in 30% (v/v) H2O2, 37 °C, 24 h
[12] = 50 μg/mL in 30% (v/v) H2O2, 80 °C, 12 h
[13] = thermal degradation, 37 °C, 24 h
[14] = thermal degradation, 80 °C, 12 h
[15] = thermal degradation, room temperature (22 °C), 24 h
[16] = thermal degradation, −80 °C, 24 h
[17] = two freeze–thaw cycles (24 h −80 °C, 2 h 22 °C, 24 h −20 °C)
[18] = thermal, temperatures ranging from 22 °C through 37 °C to +80 °C

Substance: HELM PEPTIDE1{[Cc1cc(O)cc(C)c1C[C@H](N)C(=O)[*:2]].[dK].F.F.K.K.P.F.I.L}$$$$V2.0 (N-terminus assumed; SMILES CC[C@H](C)[C@H](NC(=O)[C@H](Cc1ccccc1)NC(=O)[C@@H]1CCCN1C(=O)[C@H](CCCCN)NC(=O)[C@H](CCCCN)NC(=O)[C@H](Cc1ccccc1)NC(=O)[C@H](Cc1ccccc1)NC(=O)[C@@H](CCCCN)NC(=O)[C@@H](N)Cc1c(C)cc(O)cc1C)C(=O)N[C@@H](CC(C)C)C(=O)O) [[Ile^9]PK20, analogue of PK20 with Ile instead of Tle at position 9]
- Recovery ([1]; 37 °C, 24 h, LC-MS): 88.79%
- Concentration Found (Mean ± SD) [1, 10]: 44390 ± 4480 ng/mL
- Recovery ([1]; 80 °C, 12 h, LC-MS): 52.25%
- Concentration Found (Mean ± SD) ([1]; 80 °C, 12 h, LC-MS): 26120 ± 1520 ng/mL
- half-life in 1M HCl ([1]; LC-MS): 117.7 h
- Recovery ([2]; 37 °C, 24 h): 37.13%
- Concentration Found (Mean ± SD) ([2]; 37 °C, 24 h): 18560 ± 590 ng/mL
- Recovery ([2]; 80 °C, 12 h): 11.23%
- Concentration Found (Mean ± SD) ([2]; 80 °C, 12 h): 5610 ± 1830 ng/mL
- half-life (t1/2) in 1M NaOH [2]: 4.69 h
- Concentration Found (Mean ± SD) [3, 11]: 31390 ± 270 ng/mL
- Recovery [3, 11]: 62.79%
- Concentration Found (Mean ± SD) [3, 12]: 8240 ± 6690 ng/mL
- Recovery [3, 12]: 16.48%
- Concentration Found (Mean ± SD) [4, 13]: 44160 ± 990 ng/mL
- Recovery [4, 13]: 88.32%
- Concentration Found (Mean ± SD) [4, 14]: 43270 ± 1180 ng/mL
- Recovery [4, 14]: 86.54%
- Concentration Found (Mean ± SD) [4, 15]: 49710 ± 2240 ng/mL
- Recovery [4, 15]: 99.41%
- Concentration Found (Mean ± SD) [4, 16]: 51870 ± 400 ng/mL
- Recovery [4, 16]: 103.74%
- Concentration Found (Mean ± SD) [4, 17]: 49040 ± 1030 ng/mL
- Concentration Found (Mean ± SD) [5]: 9630 ± 110 ng/mL
- Recovery [5]: 19.25%
- induced analgesia compared to PK20 [6]: significantly lower
- pEC50 [7]: 5.91
- binding at mu opioid receptor relative to PK20 [8]: reduced binding

Substance: HELM PEPTIDE1{[Cc1cc(O)cc(C)c1C[C@H](N)C(=O)[*:2]].[dK].F.F.K.K.P.F.[CC(C)(C)[C@H](N[*:1])C(=O)[*:2]].L}$$$$V2.0 (N-terminus assumed; SMILES Cc1cc(O)cc(C)c1C[C@H](N)C(=O)N[C@H](CCCCN)C(=O)N[C@@H](Cc1ccccc1)C(=O)N[C@@H](Cc1ccccc1)C(=O)N[C@@H](CCCCN)C(=O)N[C@@H](CCCCN)C(=O)N1CCC[C@H]1C(=O)N[C@@H](Cc1ccccc1)C(=O)N[C@H](C(=O)N[C@@H](CC(C)C)C(=O)O)C(C)(C)C) [PK20, opioid–neurotensin hybrid peptide]
- Recovery ([1]; 37 °C, 24 h, LC-MS): 78.19%
- Concentration Found (Mean ± SD) [1, 10]: 39090 ± 6330 ng/mL
- Recovery ([1]; 80 °C, 12 h, LC-MS): 54.43%
- Concentration Found (Mean ± SD) ([1]; 80 °C, 12 h, LC-MS): 27220 ± 2750 ng/mL
- half-life in 1M HCl ([1]; LC-MS): 204.4 h
- Recovery ([2]; 37 °C, 24 h): 30.32%
- Concentration Found (Mean ± SD) ([2]; 37 °C, 24 h): 15160 ± 340 ng/mL
- Recovery ([2]; 80 °C, 12 h): 11.44%
- Concentration Found (Mean ± SD) ([2]; 80 °C, 12 h): 5710 ± 1670 ng/mL
- half-life (t1/2) in 1M NaOH [2]: 11.36 h
- Concentration Found (Mean ± SD) [3, 11]: 30520 ± 490 ng/mL
- Recovery [3, 11]: 61.04%
- Concentration Found (Mean ± SD) [3, 12]: 9800 ± 200 ng/mL
- Recovery [3, 12]: 19.60%
- Concentration Found (Mean ± SD) [4, 13]: 49980 ± 350 ng/mL
- Recovery [4, 13]: 99.97%
- Concentration Found (Mean ± SD) [4, 14]: 48670 ± 2740 ng/mL
- Recovery [4, 14]: 97.34%
- Concentration Found (Mean ± SD) [4, 15]: 51360 ± 1640 ng/mL
- Recovery [4, 15]: 102.72%
- Concentration Found (Mean ± SD) [4, 16]: 51900 ± 200 ng/mL
- Recovery [4, 16]: 103.80%
- remaining concentration of the peptide [4, 18]: approximately 50 μg/mL
- remaining peptide as percentage [4, 18]: ~100%
- Concentration Found (Mean ± SD) [4, 17]: 43250 ± 9420 ng/mL
- Recovery [4, 17]: 86.50%
- Concentration Found (Mean ± SD) [5]: 18720 ± 940 ng/mL
- Recovery [5]: 37.44%
- extent of damage to the CA1 region of the hippocampus ([9]; dose 25 ng/mL): 1.47% ± 1.20
- extent of damage to the CA1 region of the hippocampus ([9]; dose 50 ng/mL): 5.18% ± 2.84
- extent of damage to the CA1 region of the hippocampus ([9]; dose 100 ng/mL): 6.82% ± 6.08
- pEC50 [7]: 7.10
